The structures appear in SMILES notation.

One assay has as its system C57BL6/J mice. Description: Hypoglycemia test using C57BL6/J mice. The settings on record: oral, ad libitum fed C57BL6/J mice, plasma glucose AUC 0-6 hours vs control group. Format: in vivo. Here is the method: The test to verify the hypoglycemic effect of the test compounds was carried out in accordance with a method commonly used and represented by the method of Grimsby et. al (Science 301: 370-373, 2003).
The body weight of C57BL6/J mice (N=6), who were ad libitum fed before the test, was measured. The test compound was suspended or dissolved in the base to be administered (0.5% methyl cellulose) at a concentration of 0.06 to 20 mg/mL. The mice were orally administered with 5 mL/kg of a drug solution (equivalent to 0.3 to 100 mg/kg of the test compound) or control (only the base to be administered). About 60 μL of blood was collected from the tail vein using a capillary tube immediately before administration of the test compound and 0.5, 1, 2, 4 and 6 hours after administration of the test compound. The collected blood was centrifuged and subsequently measured for the plasma glucose concentration. The area under the curve (AUC) was calculated from changes over time in the plasma glucose concentration after administration of the test compound, and a reduction rate (%) to AUC of the control group was calculated. The dose at which an AUC decreasing percentage was 20% (ED20 value; mg/kg) was calculated from the dose response curve having the AUC reduction rate plotted on the vertical axis and the dose plotted on the horizontal axis.

A further assay deals with T1, human liver GK (Homo sapiens, UniProt P35557).
T1 construct: GST (glutathione S-transferase) (N); made in house; host or cells: E. coli
T1 sequence (P35557 1-466 isoform P35557-2): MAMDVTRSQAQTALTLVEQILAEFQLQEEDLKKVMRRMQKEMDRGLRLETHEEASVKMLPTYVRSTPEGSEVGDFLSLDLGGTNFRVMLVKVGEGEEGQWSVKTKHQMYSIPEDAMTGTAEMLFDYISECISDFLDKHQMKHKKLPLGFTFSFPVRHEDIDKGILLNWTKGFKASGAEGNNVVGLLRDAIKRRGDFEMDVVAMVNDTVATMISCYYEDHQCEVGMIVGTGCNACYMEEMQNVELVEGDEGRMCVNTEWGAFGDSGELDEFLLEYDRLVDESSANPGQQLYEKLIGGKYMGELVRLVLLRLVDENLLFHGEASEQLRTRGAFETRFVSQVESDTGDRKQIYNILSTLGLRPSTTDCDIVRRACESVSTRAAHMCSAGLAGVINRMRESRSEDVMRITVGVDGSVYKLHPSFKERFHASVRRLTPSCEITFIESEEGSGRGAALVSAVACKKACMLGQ
Description: GK activation test. Format: biochemical. The note with it: GST-fused human liver GK, 4 mM glucose, 2 mM ATP, absorbance at 405 nm after 15 minutes; read-out: EC50 (test compound concentration needed to activate 50% of the maximum activation ability). On the procedure:
The GK activation test for the test compounds was carried out by the method of Van Schaftingen et al. (Eur. J. Biochem. 179:179-184, 1989) with partial modifications. The GK activity was measured by the change in the absorbance based on an amount of thio-NADH, which is a reduced form product converted from thio-NAD+ (thionicothinamide-adeninedinucleotide) when dehydrogenating glucose 6-phosphate, produced by GK using glucose as a matrix, with G6PDH (glucose-6-phosphate dehydrogenase).
The enzyme source used in this assay, human liver GK, was expressed in E. coli as a fusion protein with GST (glutathione S-transferase) added to the amino terminus and was purified using Glutathione Sepharose 4B (Amersham Biosciences).
The test was carried out using flat-bottom 96-well half area microplates (Corning). A solution of the test compound in dimethyl sulfoxide (DMSO) at a final concentration of 1% in DMSO and DMSO as a control were added to each well of the plates. Further, 25 mM Hepes-KOH (pH=7.1), 25 mM KCl, 2 mM MgCl2, 2 mM thio-NAD+, 4 mM glucose, 1 mM DTT (dithiothreitol), 0.01 units/μL G6PDH and 2 μg/mL human liver GK were added as the final concentrations, respectively, to each of the wells. Subsequently, ATP was added to each of the wells to give the final concentration of 2 mM, and the reaction was started. The microplates were allowed to stand at room temperature. After 15 minutes from the start of reaction, the absorbance at 405 nm was measured using an absorption spectrometer for microplate.
The GK activity maximally activated by the test compound was taken as the maximum activation ability, and the test compound concentration (nM) needed to activate 50% of that maximum activation ability was expressed as EC50.

Turning to `CC(F)(F)c1ccc([C@@H](C[C@H]2CCC(=O)N2)c2ccc(C3CC3)c(=O)[nH]2)cc1` (single isomer, unassigned) [Compound B], the “ED20 (dose at which the plasma glucose AUC decreasing percentage was 20%)” value with C57BL6/J mice is given as 15.6 mg/kg. Besides, the EC50 on human liver GK turned out to be 1.33 µM.

As to `CCc1ccc([C@@H](C[C@H]2CCC(=O)N2)c2ccc(C3CC3)c(=O)[nH]2)cc1` [Compound A], the “ED20 (dose at which the plasma glucose AUC decreasing percentage was 20%)” value with C57BL6/J mice amounted to 11.5 mg/kg. Moreover, the EC50 on human liver GK stood at 0.52 µM.

Consider `O=C1CC[C@H](C[C@H](c2ccc(C(F)F)cc2)c2ccc(C3CC3)c(=O)[nH]2)N1` [Compound C], for which the “ED20 (dose at which the plasma glucose AUC decreasing percentage was 20%)” value with C57BL6/J mice was determined as 32.0 mg/kg. In addition, the EC50 at human liver GK was 0.597 µM.

Consider `CC(F)(F)c1ccc([C@@H](C[C@H]2CCC(=O)N2)c2ccc(C3CC3)c(=O)[nH]2)cc1` [Compound [1], 3-cyclopropyl-6-{(1R)-1-[4-(1,1-difluoroethyl)phenyl]-2-[(2R)-5-oxopyrrolidin-2-yl]ethyl}pyridin-2(1H)-one], for which, in the assay on C57BL6/J mice, the “ED20 (dose at which the plasma glucose AUC decreasing percentage was 20%)” value was found to be 4.2 mg/kg. In addition, at human liver GK, the EC50 was found to be 0.295 µM.

(Values after patent US9695148B2, “2-pyridone compound” (TAISHO PHARMACEUTICAL CO., LTD., priority 2012, dated 2017).)
